The text below walks through data of PMC11997890, “In Vivo and In Vitro Pharmacokinetic Studies of a Dual Topoisomerase I/II Inhibitor” (ACS Pharmacology & Translational Science, 2025).

Data set [1] concerns the target human FMO3 (Homo sapiens, UniProt P31513). Briefly: Conversion of P8-D6 by recombinant FMO3. The format is in vitro ADME. The conditions noted are these: seven recombinant CYP isoenzymes and human FMO3. Here is the method:
P8-D6 N-oxide was the most common metabolite for all incubations with subcellular fractions from the homogenized tissue. According to the detected MS-MS fragments (supplied as Supporting Information Chapter 2), it resulted from N-oxygenation of the nitrogen at the side chain since the unmodified fragment of P8-DO (m/z = 414.1) was detected. Furthermore, the detected fragment at m/z = 440.1 is most likely a carbocation at the remaining ethyl chain after splitting off the dimethylamine N-oxide further strengthening the theory of selectively forming this specific N-oxide. In addition, no relevant chemical shifts in the aromatic range of the ^1H NMR compared to P8-D6 and mono were observed (supplied as Supporting Information Chapter 2). Thus, no chemical modifications can have occurred on the aromatic rings, and all changes must therefore affect the side chain. […] To determine which enzymes were responsible for the conversion, seven recombinant CYP 450 isoenzymes recommended by the FDA’s “Guidance for Industry” and human FMO3 were used.
For all phase I metabolism studies (except cell cultures), a 0.3 mL reaction mixture consisting of 1 mM substrate (P8-D6, P8-D6 mono, P8-D6 N-oxide), 1 mM NADPH as a cofactor, 0.67 mg/mL protein from homogenized tissue or subcellular fractions, respectively (except recombinant enzymes, where 0.5 mg/mL was used), and PBS buffer (pH 7.4) was used. […]

Data set [2] can be described thus: In vitro biotransformation of P8-D6 with mouse tissue PNS. The class given is in vitro ADME. The conditions noted are these: mouse liver PNS, 1 mM P8-D6, 150 min. As for the experimental part:
(§1) P8-D6 (1 mM) was incubated with postnuclear supernatant (PNS), microsomes, or S9 reaction mixture of various tissue samples (liver, kidney, lung, spleen, and colon) from different donor species (pigs, mice, rats, and humans) for 150 min (study preparation scheme supplied as Figure S5). The commercial human and rat enzymes were subjected to quality control by the supplier. Three phase I metabolites were identified. […] LC-MS and NMR spectroscopic data for the metabolites are given in Supporting Information. Based on the structural characteristics, the metabolites were named as follows: P8-DO (4), P8-D6 N-oxide (6), and P8-D6 mono (8). All metabolites were synthesized to confirm the postulated structure (chapter Synthesis of Metabolites). The extent of metabolism during in vitro incubation was highly dependent on the species (pig > mouse > rat > human) (Figure ).
(§2) For all phase I metabolism studies (except cell cultures), a 0.3 mL reaction mixture consisting of 1 mM substrate (P8-D6, P8-D6 mono, P8-D6 N-oxide), 1 mM NADPH as a cofactor, 0.67 mg/mL protein from homogenized tissue or subcellular fractions, respectively (except recombinant enzymes, where 0.5 mg/mL was used), and PBS buffer (pH 7.4) was used. All experiments were performed in biological triplicates. […]

The nature of data set [3]: In vitro biotransformation of P8-D6 with rat tissue fractions. The class given is in vitro ADME. To be noted: 1 mM P8-D6, 150 min. Here is the method:
as §1, §2

Data set [4] addresses T1, BCRP (ABCG2) (Homo sapiens, UniProt Q9UNQ0).
T1 construct: expressed in transfected cells; host or cells: MDCKII
Briefly: Transporter inhibition, calcein-AM accumulation in MDCKII cells (BCRP overexpression). The class given is cell-based. The conditions noted are these: intracellular accumulation of calcein-AM. As for the experimental part: (§3) The inhibitory characteristics of P8-D6 on the classic efflux transporters P-GP and BCRP (ABCG2) were evaluated (Figure ).
(§4) A potential interaction of P8-D6 with the export protein P-GP (ABCB1) was evaluated in MDCK (P-GP overexpression) and MDCKII (BCRP overexpression) cells. P-GP interaction was determined by the measurement of calcein accumulation within the cells according to Bauer et al. Calcein-acetoxymethylester (calcein-AM) is a nonfluorescent, lipophilic and therefore highly cell-permeable ester. Once inside the cell, the ester bonds are rapidly cleaved by nonspecific esterases, generating highly fluorescent calcein, which is trapped inside the cell because of its hydrophilic nature. Because calcein-AM is a substrate for P-GP, inhibition of the transporter decreases efflux, which results in a higher intracellular fluorescence signal. […] Calcein-AM (MoBiTec, Göttingen, FRG) was added to a final concentration of 1 μM and incubated for 30 min at 37 °C. Afterward, the cells were immediately washed 3 times with ice-cold Krebs–Ringer buffer and lysed with 1% Triton X-100. […] Each determination was repeated 3 times in 2 experiments to ensure reproducibility. All fluorescence values were corrected by subtracting the background fluorescence.

Data set [5] in a line: Plasma protein binding by ultrafiltration. The format is in vitro ADME. Further details: dose or concentration left out as unconfirmed. To be noted: human, rat, human and rat plasma, 37 °C. As for the experimental part: To examine the effect of the P8-D6 plasma protein binding on the in vivo bioavailability, human and rat plasma was spiked in vitro and incubated with P8-D6. By using ultrafiltration to separate free P8-D6 from the protein-bound fraction, a plasma protein binding of 99% (Figure A) was estimated. However, neither human α-1-microglobulin (3.06%) nor human serum albumin (0.91%) is responsible for binding. According to initial findings, γ-globulins (94.59%), human transferrin (90.43%), LDL (87.99%), human α2-HS glycoprotein (85.29%), and human fibrinogen (78.89%) lead to binding of P8-D6.
To examine the extent of plasma protein binding, 150 μL of blank samples of human plasma […] and rat plasma […], human albumin (1 mM, #A1653, Merck KGaA, Darmstadt); human α1-acid glycoprotein (1 mM; #G9885, Merck KGaA, Darmstadt); human α2-HS-glycoprotein (0.1 mM; #G0516, Merck KGaA, Darmstadt); human transferrin (0.2 mM; #T8158, Merck KGaA, Darmstadt); human fibrinogen (0.2 mM; #F3879, Merck KGaA, Darmstadt); LDL (0.2 mM; […]); and human γ-globulin (1 mM; #G4386, Merck KGaA, Darmstadt) were spiked with P8-D6 in the same final concentration as the protein and incubated in a shaking water bath at 37 °C for 120 min. Afterward, the unbound fraction of P8-D6 was separated by ultrafiltration (Vivaspin 500 10 000 MWCO filter). The sample preparation was performed according to plasma samples. […]

Data set [6] concerns the target T2, P-GP (ABCB1) (Homo sapiens, UniProt P08183).
T2 construct: expressed in transfected cells; host or cells: MDCK (Madin Darby canine kidney)
As to the kind of experiment: Transporter inhibition, calcein-AM accumulation in MDCK cells (P-GP overexpression). The format is cell-based. To be noted: intracellular accumulation of calcein-AM. Here is the method: as §3, §4

human FMO3, sequence (P31513 whole entry, the tested form may be a part): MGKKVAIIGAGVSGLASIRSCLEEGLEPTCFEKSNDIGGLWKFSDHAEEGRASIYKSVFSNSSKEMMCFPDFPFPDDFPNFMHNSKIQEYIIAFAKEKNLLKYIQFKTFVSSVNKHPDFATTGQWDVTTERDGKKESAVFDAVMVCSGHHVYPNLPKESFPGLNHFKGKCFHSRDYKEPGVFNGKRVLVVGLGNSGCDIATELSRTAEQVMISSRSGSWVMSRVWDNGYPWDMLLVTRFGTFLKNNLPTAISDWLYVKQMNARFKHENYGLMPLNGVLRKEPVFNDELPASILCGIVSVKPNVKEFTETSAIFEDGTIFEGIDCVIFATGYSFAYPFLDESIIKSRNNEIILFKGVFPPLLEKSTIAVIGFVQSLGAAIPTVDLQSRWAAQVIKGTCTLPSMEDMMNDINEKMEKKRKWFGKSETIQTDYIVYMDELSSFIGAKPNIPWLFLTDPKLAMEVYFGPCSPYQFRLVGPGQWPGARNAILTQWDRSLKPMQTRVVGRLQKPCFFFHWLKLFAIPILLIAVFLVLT
T2 sequence (P08183 whole entry, species assumed): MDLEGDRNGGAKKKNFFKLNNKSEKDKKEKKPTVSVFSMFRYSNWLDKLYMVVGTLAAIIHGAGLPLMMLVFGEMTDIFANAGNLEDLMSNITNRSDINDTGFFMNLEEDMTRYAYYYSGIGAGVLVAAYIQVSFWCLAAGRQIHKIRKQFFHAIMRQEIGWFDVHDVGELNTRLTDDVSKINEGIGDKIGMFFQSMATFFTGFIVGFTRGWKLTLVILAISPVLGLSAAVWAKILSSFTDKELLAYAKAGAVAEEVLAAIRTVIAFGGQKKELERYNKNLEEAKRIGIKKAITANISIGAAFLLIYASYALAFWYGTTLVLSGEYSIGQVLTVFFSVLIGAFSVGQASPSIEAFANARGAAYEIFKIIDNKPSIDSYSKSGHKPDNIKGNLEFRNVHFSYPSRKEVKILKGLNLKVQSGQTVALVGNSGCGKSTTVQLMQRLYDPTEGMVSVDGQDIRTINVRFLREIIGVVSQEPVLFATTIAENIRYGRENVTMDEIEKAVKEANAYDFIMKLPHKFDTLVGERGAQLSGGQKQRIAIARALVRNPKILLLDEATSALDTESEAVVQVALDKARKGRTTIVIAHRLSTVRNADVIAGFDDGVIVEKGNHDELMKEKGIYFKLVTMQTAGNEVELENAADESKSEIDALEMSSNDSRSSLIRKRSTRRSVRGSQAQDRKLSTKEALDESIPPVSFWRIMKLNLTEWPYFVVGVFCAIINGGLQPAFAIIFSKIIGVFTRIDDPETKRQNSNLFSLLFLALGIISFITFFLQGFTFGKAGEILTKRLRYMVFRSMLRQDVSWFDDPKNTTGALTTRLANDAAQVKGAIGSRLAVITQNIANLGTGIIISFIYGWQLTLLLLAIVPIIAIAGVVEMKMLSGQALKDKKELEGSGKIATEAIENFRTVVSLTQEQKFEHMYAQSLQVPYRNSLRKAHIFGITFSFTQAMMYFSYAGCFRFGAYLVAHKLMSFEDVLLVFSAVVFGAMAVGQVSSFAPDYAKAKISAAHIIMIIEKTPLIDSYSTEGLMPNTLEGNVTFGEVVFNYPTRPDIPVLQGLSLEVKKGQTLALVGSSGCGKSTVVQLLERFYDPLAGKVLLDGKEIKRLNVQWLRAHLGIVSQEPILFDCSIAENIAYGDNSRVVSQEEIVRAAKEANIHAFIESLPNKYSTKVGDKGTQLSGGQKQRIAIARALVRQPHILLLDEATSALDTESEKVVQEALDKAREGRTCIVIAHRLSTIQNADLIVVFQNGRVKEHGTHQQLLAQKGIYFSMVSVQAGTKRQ
T1 sequence (Q9UNQ0 whole entry, species assumed): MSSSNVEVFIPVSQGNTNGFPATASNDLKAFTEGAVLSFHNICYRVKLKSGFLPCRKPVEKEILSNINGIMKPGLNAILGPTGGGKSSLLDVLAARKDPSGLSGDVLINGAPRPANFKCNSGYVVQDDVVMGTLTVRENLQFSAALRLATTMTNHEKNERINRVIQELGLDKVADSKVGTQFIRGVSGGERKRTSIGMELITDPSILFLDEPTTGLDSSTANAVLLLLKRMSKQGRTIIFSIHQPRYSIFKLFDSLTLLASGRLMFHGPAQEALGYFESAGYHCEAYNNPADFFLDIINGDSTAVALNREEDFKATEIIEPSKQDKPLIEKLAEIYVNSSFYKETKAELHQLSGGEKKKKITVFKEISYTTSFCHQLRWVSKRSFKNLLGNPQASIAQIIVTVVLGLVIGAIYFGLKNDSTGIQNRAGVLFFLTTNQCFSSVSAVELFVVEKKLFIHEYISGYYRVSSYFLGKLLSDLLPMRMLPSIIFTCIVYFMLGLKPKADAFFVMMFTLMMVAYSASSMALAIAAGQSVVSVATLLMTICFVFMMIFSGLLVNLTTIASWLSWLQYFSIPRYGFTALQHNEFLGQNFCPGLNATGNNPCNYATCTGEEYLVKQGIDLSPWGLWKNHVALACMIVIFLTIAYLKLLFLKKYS

Turning to `COc1cc(-c2cc3ccncc3c3nc(OCC[N+](C)(C)[O-])c4cnccc4c23)cc(OC)c1OC` [P8-D6 N-oxide], the “formation of metabolite from P8-D6 by recombinant enzymes” value in data set [1] is recorded as “only with FMO3”. The results for the “formation of metabolite from P8-D6” value in data set [2], in data set [3] (rat liver microsomes) and in data set [3] (rat lung PNS) were 3.08%, 1.91% and 1.37%, respectively.
Broadly, the IC50 is the point on the concentration scale where inhibition reaches its midpoint. One may read the fraction unbound as free concentration divided by total concentration. In the case of `COc1cc(-c2cc3ccncc3c3nc(OCCN(C)C)c4cnccc4c23)cc(OC)c1OC` [P8-D6, 6-(N,N-dimethyl-2-aminoethoxy)-11-(3,4,5-trimethoxyphenyl)-pyrido[3,4-c][1,9]-phenanthroline], the IC50 in data set [4] is 16.3 µM; in data set [6], 20.6 µM. The fraction unbound at 120 min in data set [5] worked out at 0.01.
